From ChEMBL document CHEMBL5550194, “Design and synthesis of phosphoryl-substituted steroidal pyridazines (Pho-STPYRs) as potent estrogen receptor alpha inhibitors: targeted treatment of hormone-dependent breast cancer cells” (RSC Med Chem, 2024)
pIC50: −log10 of the molar value.

Tested on: not listed separately
Experiment: Cytotoxicity against human THP-1 cells assessed as inhibition of cell growth incubated for 72 hrs by MTT assay
Type: toxicity, cell-based
Settings: not given
Work on `COc1cccc2c1C(=O)c1c(O)c3c(c(O)c1C2=O)C[C@@](O)(C(=O)CO)C[C@@H]3O[C@H]1C[C@H](N)[C@H](O)[C@H](C)O1` [DOXORUBICIN] yielded an IC50 at 72 h of 0.045 µM.

Tested on: MDA-MB-231
Experiment: Antiproliferative activity against human MDA-MB-231 cells assessed as inhibition of cell growth incubated for 72 hrs by MTT assay
Type: functional, cell-based
Settings: MDA-MB-231, 72 h
In the case of `CC(=O)O[C@H]1CC[C@@]2(C)C(=CC[C@@H]3[C@@H]2CC[C@]2(C)c4c(cnnc4P(=O)(c4ccccc4)c4ccccc4)C[C@@H]32)C1`, the pIC50 was 4.75. Work on `C[C@]12CC[C@H](O)C[C@@H]1CC[C@@H]1[C@@H]2CC[C@]2(C)c3c(cnnc3P(=O)(Nc3ccccc3)Nc3ccccc3)C[C@@H]12` yielded a pIC50 of less than 4.60. Molecule `COc1ccc2c(c1)CC[C@@H]1[C@@H]2CC[C@]2(C)c3c(cnnc3P(=O)(NC(C)(C)C)NC(C)(C)C)C[C@@H]12` has a pIC50 of 4.78. `C[C@]12CC[C@@H]3c4ccc(O)cc4CC[C@H]3[C@@H]1Cc1cnnc(P(=O)(Nc3ccccc3)Nc3ccccc3)c12` showed a pIC50 of less than 4.60. Molecule `C[C@]12CC[C@@H]3c4ccc(O)cc4CC[C@H]3[C@@H]1Cc1cnnc(P(=O)(c3ccccc3)c3ccccc3)c12` has a pIC50 of less than 4.60. For `CC(C)(C)NP(=O)(NC(C)(C)C)c1nncc2c1[C@@]1(C)CC[C@H]3[C@@H](CC=C4C[C@@H](O)CC[C@@]43C)[C@@H]1C2`, the pIC50 was less than 4.60. In the case of `CC(=O)O[C@H]1CC[C@@]2(C)C(=CC[C@@H]3[C@@H]2CC[C@]2(C)c4c(cnnc4P(=O)(Nc4ccccc4)Nc4ccccc4)C[C@@H]32)C1`, the pIC50 was less than 4.60. For `C[C@]12CC[C@H]3[C@@H](CCC4Cc5c(cnnc5P(=O)(Nc5ccccc5)Nc5ccccc5)C[C@@]43C)[C@@H]1CC[C@@H]2O` (some centres not stated), the pIC50 was 4.78. Molecule `COc1ccc2c(c1)CC[C@@H]1[C@@H]2CC[C@]2(C)c3c(cnnc3P(=O)(c3ccccc3)c3ccccc3)C[C@@H]12` has a pIC50 of 4.87. For `COc1cccc2c1C(=O)c1c(O)c3c(c(O)c1C2=O)C[C@@](O)(C(=O)CO)C[C@@H]3O[C@H]1C[C@H](N)[C@H](O)[C@H](C)O1` [DOXORUBICIN], the pIC50 was 6.57. Work on `CC(C)(C)NP(=O)(NC(C)(C)C)c1nncc2c1[C@@]1(C)CC[C@H]3[C@@H](CC[C@H]4C[C@@H](O)CC[C@@]43C)[C@@H]1C2` yielded a pIC50 of less than 4.60. With `C[C@]12CC[C@H](O)CC1=CC[C@@H]1[C@@H]2CC[C@]2(C)c3c(cnnc3P(=O)(Nc3ccccc3)Nc3ccccc3)C[C@@H]12` the pIC50 was less than 4.60. With `C[C@]12CC[C@H](O)CC1=CC[C@@H]1[C@@H]2CC[C@]2(C)c3c(cnnc3P(=O)(c3ccccc3)c3ccccc3)C[C@@H]12` the pIC50 was 5.13. In the case of `CC(C)(C)NP(=O)(NC(C)(C)C)c1nncc2c1[C@@]1(C)CC[C@H]3[C@@H](CCC4=CC(=O)CC[C@@]43C)[C@@H]1C2`, the pIC50 was 4.68. `CC(C)(C)NP(=O)(NC(C)(C)C)c1nncc2c1[C@@]1(C)CC[C@H]3[C@@H](CC=C4CC(Cl)CC[C@@]43C)[C@@H]1C2` (some centres not stated) gave a pIC50 of 4.81. In the case of `CC(=O)O[C@H]1CC[C@@]2(C)C(=CC[C@@H]3[C@@H]2CC[C@]2(C)c4c(cnnc4P(=O)(NC(C)(C)C)NC(C)(C)C)C[C@@H]32)C1`, the pIC50 was less than 4.60. In the case of `C[C@]12CC[C@H]3[C@@H](CCC4Cc5c(cnnc5P(=O)(c5ccccc5)c5ccccc5)C[C@@]43C)[C@@H]1CC[C@@H]2O` (some centres not stated), the pIC50 was 5.05. With `COc1ccc2c(c1)CC[C@@H]1[C@@H]2CC[C@]2(C)c3c(cnnc3P(=O)(Nc3ccccc3)Nc3ccccc3)C[C@@H]12` the pIC50 was less than 4.60. `CC(C)(C)NP(=O)(NC(C)(C)C)c1nncc2c1[C@@]1(C)CC[C@@H]3c4ccc(O)cc4CC[C@H]3[C@@H]1C2` showed a pIC50 of less than 4.60. Molecule `C[C@]12CCC(Cl)CC1=CC[C@@H]1[C@@H]2CC[C@]2(C)c3c(cnnc3P(=O)(Nc3ccccc3)Nc3ccccc3)C[C@@H]12` (some centres not stated) has a pIC50 of less than 4.60.

Tested on: MCF7
Experiment: Antiproliferative activity against human MCF7 cells assessed as inhibition of cell growth incubated for 72 hrs by MTT assay
Type: functional, cell-based
Settings: MCF7, 72 h
Molecule `CC(=O)O[C@H]1CC[C@@]2(C)C(=CC[C@@H]3[C@@H]2CC[C@]2(C)c4c(cnnc4P(=O)(c4ccccc4)c4ccccc4)C[C@@H]32)C1` has a pIC50 of 4.85. In the case of `C[C@]12CC[C@H](O)C[C@@H]1CC[C@@H]1[C@@H]2CC[C@]2(C)c3c(cnnc3P(=O)(Nc3ccccc3)Nc3ccccc3)C[C@@H]12`, the pIC50 was 4.77. Molecule `COc1ccc2c(c1)CC[C@@H]1[C@@H]2CC[C@]2(C)c3c(cnnc3P(=O)(NC(C)(C)C)NC(C)(C)C)C[C@@H]12` has a pIC50 of 4.90. In the case of `C[C@]12CC[C@@H]3c4ccc(O)cc4CC[C@H]3[C@@H]1Cc1cnnc(P(=O)(Nc3ccccc3)Nc3ccccc3)c12`, the pIC50 was less than 4.60. With `C[C@]12CC[C@@H]3c4ccc(O)cc4CC[C@H]3[C@@H]1Cc1cnnc(P(=O)(c3ccccc3)c3ccccc3)c12` the pIC50 was less than 4.60. Work on `CC/C(=C(\c1ccc(O)cc1)c1ccc(OCCN(C)C)cc1)c1ccccc1` [AFIMOXIFENE] yielded a pIC50 of 5.28. `CC(C)(C)NP(=O)(NC(C)(C)C)c1nncc2c1[C@@]1(C)CC[C@H]3[C@@H](CC=C4C[C@@H](O)CC[C@@]43C)[C@@H]1C2` gave a pIC50 of 4.61. In the case of `CC(=O)O[C@H]1CC[C@@]2(C)C(=CC[C@@H]3[C@@H]2CC[C@]2(C)c4c(cnnc4P(=O)(Nc4ccccc4)Nc4ccccc4)C[C@@H]32)C1`, the pIC50 was less than 4.60. For `C[C@]12CC[C@H]3[C@@H](CCC4Cc5c(cnnc5P(=O)(Nc5ccccc5)Nc5ccccc5)C[C@@]43C)[C@@H]1CC[C@@H]2O` (some centres not stated), the pIC50 was 5.03. Work on `COc1ccc2c(c1)CC[C@@H]1[C@@H]2CC[C@]2(C)c3c(cnnc3P(=O)(c3ccccc3)c3ccccc3)C[C@@H]12` yielded a pIC50 of 5.07. For `COc1cccc2c1C(=O)c1c(O)c3c(c(O)c1C2=O)C[C@@](O)(C(=O)CO)C[C@@H]3O[C@H]1C[C@H](N)[C@H](O)[C@H](C)O1` [DOXORUBICIN], the pIC50 was 6.55. With `CC(C)(C)NP(=O)(NC(C)(C)C)c1nncc2c1[C@@]1(C)CC[C@H]3[C@@H](CC[C@H]4C[C@@H](O)CC[C@@]43C)[C@@H]1C2` the pIC50 was less than 4.60. With `C[C@]12CC[C@H](O)CC1=CC[C@@H]1[C@@H]2CC[C@]2(C)c3c(cnnc3P(=O)(Nc3ccccc3)Nc3ccccc3)C[C@@H]12` the pIC50 was 4.73. For `C[C@]12CC[C@H](O)CC1=CC[C@@H]1[C@@H]2CC[C@]2(C)c3c(cnnc3P(=O)(c3ccccc3)c3ccccc3)C[C@@H]12`, the pIC50 was 4.76. `CC(C)(C)NP(=O)(NC(C)(C)C)c1nncc2c1[C@@]1(C)CC[C@H]3[C@@H](CCC4=CC(=O)CC[C@@]43C)[C@@H]1C2` gave a pIC50 of 4.73. For `CC(C)(C)NP(=O)(NC(C)(C)C)c1nncc2c1[C@@]1(C)CC[C@H]3[C@@H](CC=C4CC(Cl)CC[C@@]43C)[C@@H]1C2` (some centres not stated), the pIC50 was 4.95. `CC(=O)O[C@H]1CC[C@@]2(C)C(=CC[C@@H]3[C@@H]2CC[C@]2(C)c4c(cnnc4P(=O)(NC(C)(C)C)NC(C)(C)C)C[C@@H]32)C1` showed a pIC50 of 4.79. Work on `C[C@]12CC[C@H]3[C@@H](CCC4Cc5c(cnnc5P(=O)(c5ccccc5)c5ccccc5)C[C@@]43C)[C@@H]1CC[C@@H]2O` (some centres not stated) yielded a pIC50 of 5.15. `COc1ccc2c(c1)CC[C@@H]1[C@@H]2CC[C@]2(C)c3c(cnnc3P(=O)(Nc3ccccc3)Nc3ccccc3)C[C@@H]12` gave a pIC50 of less than 4.60. With `CC(C)(C)NP(=O)(NC(C)(C)C)c1nncc2c1[C@@]1(C)CC[C@@H]3c4ccc(O)cc4CC[C@H]3[C@@H]1C2` the pIC50 was 4.65. Molecule `C[C@]12CCC(Cl)CC1=CC[C@@H]1[C@@H]2CC[C@]2(C)c3c(cnnc3P(=O)(Nc3ccccc3)Nc3ccccc3)C[C@@H]12` (some centres not stated) has a pIC50 of less than 4.60.
